In test [1] the target is T1, human TRPC6 (Homo sapiens, UniProt Q9Y210).
T1 construct: expressed in transfected cells; host or cells: HEK293
T1 sequence (Q9Y210 1-931): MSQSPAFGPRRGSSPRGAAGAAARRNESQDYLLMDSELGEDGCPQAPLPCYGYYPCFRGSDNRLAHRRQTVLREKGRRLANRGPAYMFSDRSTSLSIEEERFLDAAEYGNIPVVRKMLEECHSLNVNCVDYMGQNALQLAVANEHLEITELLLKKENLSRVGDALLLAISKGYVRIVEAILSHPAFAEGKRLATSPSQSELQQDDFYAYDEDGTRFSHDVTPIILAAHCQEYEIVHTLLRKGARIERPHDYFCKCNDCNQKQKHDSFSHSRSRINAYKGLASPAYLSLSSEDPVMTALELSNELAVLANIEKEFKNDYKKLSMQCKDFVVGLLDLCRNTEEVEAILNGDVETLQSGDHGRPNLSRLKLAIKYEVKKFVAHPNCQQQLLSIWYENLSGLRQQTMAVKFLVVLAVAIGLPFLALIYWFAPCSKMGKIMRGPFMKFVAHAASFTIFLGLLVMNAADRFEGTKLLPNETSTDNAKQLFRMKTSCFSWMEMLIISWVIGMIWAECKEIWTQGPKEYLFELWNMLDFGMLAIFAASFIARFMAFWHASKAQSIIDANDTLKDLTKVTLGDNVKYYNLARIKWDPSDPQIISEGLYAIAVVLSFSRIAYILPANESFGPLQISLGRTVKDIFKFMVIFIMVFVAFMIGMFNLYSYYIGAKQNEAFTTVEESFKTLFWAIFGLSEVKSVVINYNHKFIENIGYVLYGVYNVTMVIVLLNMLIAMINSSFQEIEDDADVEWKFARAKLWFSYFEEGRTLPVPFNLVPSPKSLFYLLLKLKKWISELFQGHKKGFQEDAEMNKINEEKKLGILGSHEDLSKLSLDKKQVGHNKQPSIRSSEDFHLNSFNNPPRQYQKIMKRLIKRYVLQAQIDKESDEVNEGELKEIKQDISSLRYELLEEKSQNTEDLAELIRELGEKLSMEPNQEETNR
Briefly: Assay A: Determination of TRPC6 inhibition, whole-cell patch clamp assay. The class given is cell-based. The conditions noted are these: 30 nM; HEK293 cells expressing human TRPC6; pre-incubated at least 3 h; average inward current densities vs vehicle; activated by 10 μM ethyl 8-fluoro-1H,2H,3H,4H,5H-pyrido[4,3-b]indole-2-carboxylate. The text has this: Assay A: Determination of TRPC6 Inhibition
HEK293 cells transfected with a plasmid expressing human TRPC6 are used for a patch clamp assay. Patch clamp experiments permit the detection of currents through TRPC6 channels in cellular systems as mentioned above. For whole-cell patch clamp recordings, a glass capillary electrode filled with electrolyte is brought into contact with a single cell and a high-resistance (gigaohm) seal is established with the cell membrane. The membrane is then ruptured to achieve the whole-cell configuration, permitting control of the intracellular electrical potential and measurement of electrical currents across the cell membrane using an amplifier connected to the electrode. A perfusion system permits control of the extracellular solution, including the addition of inhibitors and activators of TRPC6 channels. The TRPC6 current can be activated by 10 μM ethyl 8-fluoro-1H,2H,3H,4H,5H-pyrido[4,3-b]indole-2-carboxylate (commercially available, MFCD02930345) in the extracellular solution.
For the characterization of TRPC6 inhibitors, TRPC6 expression was induced for 20-48 hours, cells were removed from growth plates, and replated at low density (to attain good single-cell physical separation) in small dishes for measurement. Patch clamp recordings were performed in the whole-cell configuration at a holding potential of −40 mV. Every 1.5 seconds, a 400 ms voltage ramp was applied from −80 to +80 mV, flanked by 50 ms constant segments at −80 and +80 mV, respectively. TRPC6-mediated currents were quantified during those constant segments at −80 mV and +80 mV. The internal (pipette) solution consisted of 140 mM cesium aspartate, 10 mM EGTA, 1.91 mM CaCl2, 2.27 mM MgCl2 and 10 mM HEPES, pH 7.2 with CsOH, 40 nM calculated free Ca^2+. The external (bath) solution consisted of 145 mM NaCl, 4.5 mM KCl, 3 mM MgCl2, 10 mM HEPES, 10 mM glucose, 1 mM EGTA, pH 7.4 with NaOH. TRPC6 expressing cells were pre-incubated with potential inhibitors at either 30 nM or at various concentrations (for concentration-response-curves) or vehicle for at least 3 h and both maximal inward and outward currents were determined after addition of ethyl 8-fluoro-1H,2H,3H,4H,5H-pyrido[4,3-b]indole-2-carboxylate. Percent current inhibition was calculated from the average inward current densities of treated and vehicle cells. Current densities were calculated as absolute current normalized with respect to the individual cell's membrane capacitance as a surrogate parameter for cellular surface area. The number of cells measured for each group was chosen in a way that an average of 50% current inhibition with respect to the vehicle group would yield a statistically significant difference (p<0.05) in 90% of the cases based on the variability in current expression between cells. For the estimation of half-inhibitory concentrations, the Hill equation was fitted to the average % percent inhibition values at a series of concentrations of a specific compound.
In general terms: Patch clamp records ionic current or voltage across a cell membrane.

Test [2] concerns PASMC. The conditions noted are these: cited from earlier work.
For test [3], the system named is TRPC6. The conditions noted are these: lung tissue of IPAH patients; cited from earlier work.

Structures are written as SMILES.

A word on the inhibition: it is the change of the read-out against control, counted positive when it falls.

In turn, `COc1ccc(Oc2ccc(C(=O)N3CC[C@H](c4nnc(N)cc4C)C[C@@H]3C)cc2)cn1` [Compound 1, 6-[(2S,4S)-1-{4-[(6-Methoxypyridin-3-yl)oxy]benzoyl}-2-methylpiperidin-4-yl]-5-methylpyridazin-3-amine trifluoroacetic acid] came in with an inhibition at 0.03 µM in test [1] of 81%. The compound `COc1ccc(Oc2ccc(C(=O)N3CC[C@H](c4nnc(N)cc4C)C[C@@H]3C)cc2OC)cn1` [Compound 2, 6-[(2S,4S)-1-{3-Methoxy-4-[(6-methoxypyridin-3-yl)oxy]benzoyl}-2-methylpiperidin-4-yl]-5-methylpyridazin-3-amine] gave an inhibition at 0.03 µM in test [1] of 60%. Same read-out and setting: next, `COc1cc(C(=O)N2CC[C@H](c3nnc(N)cc3C)C[C@@H]2C)ccc1Oc1ccc(C(F)(F)F)nc1` [Compound 4, 6-[(2S,4S)-1-(3-Methoxy-4-{[6-(trifluoromethyl)pyridin-3-yl]oxy}benzoyl)-2-methylpiperidin-4-yl]-5-methylpyridazin-3-amine]: 12%; `COc1ccc(Oc2cnc(C(=O)N3CCC(c4ccc(N)nn4)CC3)cc2OC)cn1` [Compound 5, 6-(1-{4-Methoxy-5-[(6-methoxypyridin-3-yl)oxy]pyridine-2-carbonyl}piperidin-4-yl)pyridazin-3-amine trifluoracetic acid]: 27%; `COc1ccc(Oc2ccc(C(=O)N3CC[C@@H](c4nnc(N)cc4C)[C@@H](C)C3)cc2OC)cn1` [Compound 6, 6-[(3R,4R)-1-{3-Methoxy-4-[(6-methoxypyridin-3-yl)oxy]benzoyl}-3-methylpiperidin-4-yl]-5-methylpyridazin-3-amine]: 72%. The same measure, in the same setting: next, `COc1ccc(Oc2ccc(C(=O)N3CCC(c4nnc(N)cc4C)CC3)cc2)cn1` [Compound 7, 6-(1-{4-[(6-Methoxypyridin-3-yl)oxy]benzoyl}piperidin-4-yl)-5-methylpyridazin-3-amine trifluoroacetic acid]: 61%; `COc1ccc(Oc2ccc(C(=O)N3CCC(c4nnc(N)cc4C)CC3)cc2OC)cn1` [Compound 8, 6-(1-{3-Methoxy-4-[(6-methoxypyridin-3-yl)oxy]benzoyl}piperidin-4-yl)-5-methylpyridazin-3-amine trifluoroacetic acid]: 37%; `COc1ccc(Oc2cnc(C(=O)N3CCC(c4nnc(N)cc4C)CC3)cc2OC)cn1` [Compound 9, 6-(1-{4-Methoxy-5-[(6-methoxypyridin-3-yl)oxy]pyridine-2-carbonyl}piperidin-4-yl)-5-methylpyridazin-3-amine trifluoracetic acid]: 51%. Regarding `COc1ccccc1Oc1c(NS(=O)(=O)c2ccc(C(C)(C)C)cc2)nc(-c2ncccn2)nc1OCCO` [bosentan], the “proliferation of PASMC” value in test [2] is given as “decreases proliferation”. In test [3], the “expression of TRPC6” value is “decreases expression of TRPC6”.

These data come from US12156874B2, “Inhibitors of TRPC6” (Boehringer Ingelheim International GmbH, priority 2019, dated 2024).
